pIC50: −log10 of the molar value.
Legend:
[1] = target: T1, soluble, human recombinant NEP (Homo sapiens, UniProt P08473); test: In-vitro investigation of the NEP inhibitory action (fluorescence-quenched Big-ET-1 analogue, HPLC); type: biochemical
T1 construct: soluble, human recombinant NEP; purchased Prof; Crine, University of Montreal, Canada
Procedure: 1. In-Vitro Investigation of the NEP Inhibitory Action of the Substances
In this test, the measure of the inhibitory activity of the substances which was determined was their IC50 value. The IC50 value of a test substance having enzyme-inhibitory activity is that concentration of the test substance at which 50% of the enzymatic activity of the NEP is blocked.
70 μl test buffer, 10 μl enzyme working solution and 10 μl test substance solution were mixed in an Eppendorf vessel and preincubated at 37° C. for 15 minutes (=min.). Then 10 μl substrate stock solution was added and the test batch was incubated for 60 minutes at 37° C. The enzymatic reaction was then ended by 5-minutes' heating to 95° C. After centrifugation (Heraeus Biofuge B, 3 min.), the liquid supernatant was investigated by HPLC in accordance with the following specifications.
The substrate was separated from cleavage products by means of reversed-phase HPLC (CC 125/4 Nucleosil 300/5 C18 RP column with CC 8/4 Nucleosil 100/5 C18 precolumn, from Macherey-Nagel, Düren, Germany). For this, 60 μl of the test mixture was injected into the HPLC sample injection point and the column was then eluted at a flow rate of 1 ml/min with the following gradient:
Mobile Phase B: 100% acetonitrile+0.5M H3PO4
All the peptides were detected by absorption at 214 nm and by fluorescence with an excitation wavelength of 328 nm and an emission wavelength of 393 nm.
Upon enzymatic cleavage of the peptide, the fluorophore (=Mca) and the quencher end up in different peptide fragments, which reduces the effectiveness of the quench. […] The increasing fluorescence signal (corresponds to the area, A) of the HPLC peak of the peptide with the non-quenched Mca fluorophore is used for the further calculations. This signal was compared for samples with (=Ainhib) and without (=Acontrol) test substance of Formula I, and the value “% inhibition” was calculated on the basis of the respective peak areas according to the following formula: % inhibition=100*(1−Ainhib/Acontrol)
All the samples were measured in duplicates and average values were calculated therefrom. A standard inhibitor (10 nM thiorphan) and a solvent control (0.1% DMSO) were likewise measured as quality controls on each run. In this test model the test substances of Formula I listed in the following Table 1 had the IC50 values given below: […]

[2] = Plasma protein binding, equilibrium dialysis, human plasma; type: in vitro ADME; conditions: human plasma (10% for routine testing), 37° C., pH 7.4, 10% plasma (100% for low binders), read-out: % bound (human plasma) (converted)
Procedure: (§1) Plasma protein binding of the test substances of Formula I was measured using a validated equilibrium dialysis method. The dialysis cells consisted of two halves separated by a semi-permeable membrane slightly tensioned in between. […] Before being used, the membranes were re-hydrated by soaking in water followed by the dialysis buffer. Plasma (10% for routine testing, and 100% for compounds found to have a low protein binding) was heated to 37° C. and adjusted to pH 7.4 before use. 5 μM test compound solutions (final dimethylsulfoxide concentration 0.5%) were prepared in isotonic phosphate buffer containing rat or human plasma. The plasma-containing solution was on one side of the membrane, and the plasma-free on the other. Incubations were performed overnight (10% plasma assay), or for 2 hours (100% plasma assay) in triplicate. The cells were mounted in a drive unit that rotated the cells and ensured a uniform equilibrium was obtained. The equilibrium was temperature controlled by the drive unit being immersed in a water bath at 37° C. At the end of the equilibration time, the cells were emptied. The solutions for each batch of compounds were combined into two groups (plasma-free and plasma-containing) then cassette analysed by LC-MS/MS using two sets of calibration standards for plasma-free (7 points) and plasma-containing solutions (6 points). The percentage of protein bound compound was calculated as follows: [formula] PC=sample concentration in protein containing side; PF=sample concentration in protein free side;

[3] = Plasma protein binding, equilibrium dialysis, rat plasma; type: in vitro ADME; conditions: rat plasma (10% for routine testing), 37° C., pH 7.4, 10% plasma (100% for low binders), read-out: % bound (rat plasma) (converted)
Procedure: as §1

[4] = test system: maximal SAP response to Big-ET; test: In vivo i.v. potency (ID50) to inhibit maximal SAP response to Big-ET in anesthetized rats; set-up: species or system Rats (Sprague-Dawley); conditions: Rattus norvegicus, iv, dose at which the pressor effect of Big-ET was suppressed by 50%
Procedure: Rats (Sprague-Dawley, CRLD=Charles River) were anaesthetised with 1 ml/kg Rompun/Ketavet 1:1. A pressure transducer (Statham) was inserted into the carotid artery to measure blood pressure.
For intravenous testing, one jugular vein was cannulated for administering the substance, and the other for administering Big-ET-1. […] Five minutes later, 0.5 nmol/kg Big-ET-1 was infused over a period of one minute. SAP, DAP, and heart rate were measured before administration of the substance, then before administration of Big-ET, and subsequently every five minutes after Big-ET administration over a period of 30 minutes using the pressure transducer in known manner. The maximum Big-ET-induced increase in blood pressure was calculated from the measured values as the difference between the value measured at the moment of maximum development of the Big-ET action (typically after 5 min) and the value measured before Big-ET infusion. The dose at which the pressor effect of Big-ET was suppressed by 50% (ID50) was estimated from the inhibitory effects observed over the range of dosages tested (n>5 rats for each dose).
The intravenous potency of the test compounds of Formula I (given as ID50 values) to inhibit the maximal SAP response to Big ET in anesthetized rats is set forth in the following Table 3b: […]

[5] = test system: formation of ET-1 from Big-ET-1; test: In vivo inhibition of the Big-ET-1-induced blood pressure increase in anaesthetised rats, i.v. single dose; set-up: species or system Rats (Sprague-Dawley); conditions: Rattus norvegicus, iv, 5 min before 0.5 nmol/kg Big-ET-1, negative values indicate inhibition, read-out: % substance-related inhibition of the maximum Big-ET effect on SAP vs. control; for change in vivo at 10 µmol/kg: 10 μmol/kg; for change in vivo at 3 µmol/kg: 3 μmol/kg
Excerpt: 3. In Vivo Investigation of the Inhibitory Action of the Substances on the Formation of ET-1 from Big-ET-1 in Rats
ET-1 is an endogenous substance with strong vasoconstrictive effect. An increase in the ET-1 level results in an increase in blood pressure. Upon infusion of Big-ET-1, an increase in blood pressure takes place to the extent that ET-1 is produced therefrom by enzyme-catalysed cleavage of Big-ET-1. As a measurement of the enzyme-inhibiting action of the substances, their inhibitory action on the increase in blood pressure induced by infusion of Big-ET-1 was determined.
Rats (Sprague-Dawley, CRLD=Charles River) were anaesthetised with 1 ml/kg Rompun/Ketavet 1:1. A pressure transducer (Statham) was inserted into the carotid artery to measure blood pressure. One jugular vein was cannulated for administering the substance, and the other for administering Big-ET-1. After a 20-minute equilibration phase, the rats were administered the corresponding test substance of Formula I at a dose of as a rule 10 μmol/kg (if not stated otherwise), or a vehicle. Five minutes later, 0.5 nmol/kg Big-ET-1 was infused over a period of one minute. The systolic (SAP=systolic arterial pressure) and the diastolic (DAP=diastolic arterial pressure) blood pressure and the heart rate were each measured before administration of the substance, then immediately before administration of Big-ET and in each case every five minutes over a period of 30 minutes after Big-ET administration using the pressure transducer in known manner. The maximum Big-ET-induced increase in blood pressure and the maximum lowering of heart rate were calculated from the measured values as the difference between the value measured at the moment of maximum development of the Big-ET action (typically after 5 min.) and the value measured before Big-ET infusion. Furthermore, the integral of the blood pressure curve under the influence of Big-ET-1 was determined over 30 minutes (AUC=area under the curve).
The percentage inhibition of the maximum Big-ET-1 effect on the systolic arterial blood pressure (SAP) after i.v. administration of the test substances compared with administration of a vehicle is set forth in the following Table 3a:
Data given in table 3a as negative values indicate an inhibitory effect.

[6] = target: T2, His6-tagged hSEP ectodomain (Homo sapiens, UniProt Q495T6); test: In vitro investigation of the hSEP-inhibitory action (fluorescence-quenched Big-ET-1 analogue, HPLC); type: biochemical
T2 construct: His6-tagged hSEP ectodomain; His6; purchased Innogenetics, Ghent, Belgium
T2 sequence (Q495T6 49-779 limits assumed): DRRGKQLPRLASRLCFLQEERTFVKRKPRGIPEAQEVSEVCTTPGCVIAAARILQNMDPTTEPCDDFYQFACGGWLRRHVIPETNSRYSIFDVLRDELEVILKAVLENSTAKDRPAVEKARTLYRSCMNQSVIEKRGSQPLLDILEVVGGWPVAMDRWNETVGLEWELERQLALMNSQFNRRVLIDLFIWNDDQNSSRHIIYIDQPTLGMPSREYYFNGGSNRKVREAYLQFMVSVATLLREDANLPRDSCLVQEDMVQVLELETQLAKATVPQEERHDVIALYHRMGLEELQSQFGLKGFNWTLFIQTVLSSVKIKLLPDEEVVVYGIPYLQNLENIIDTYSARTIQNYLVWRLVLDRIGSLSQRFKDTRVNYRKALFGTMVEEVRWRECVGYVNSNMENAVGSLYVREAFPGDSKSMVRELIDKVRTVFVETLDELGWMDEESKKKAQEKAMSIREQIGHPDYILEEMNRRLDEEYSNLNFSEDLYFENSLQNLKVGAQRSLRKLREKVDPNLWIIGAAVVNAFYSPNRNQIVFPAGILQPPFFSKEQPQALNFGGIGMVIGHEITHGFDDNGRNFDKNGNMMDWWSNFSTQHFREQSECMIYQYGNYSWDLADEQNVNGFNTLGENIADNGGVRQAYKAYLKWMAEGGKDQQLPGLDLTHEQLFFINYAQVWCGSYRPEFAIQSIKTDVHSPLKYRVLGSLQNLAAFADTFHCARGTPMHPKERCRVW
Procedure: 2. In Vitro Investigation of the hSEP-Inhibitory Action of the Substances
In this test, the measure of the inhibitory activity of the substances which was determined was their IC50 value. The IC50 value of a test substance having enzyme-inhibitory activity is that concentration of the test substance at which 50% of the enzymatic activity of the hSEP is blocked.
The test and the HPLC procedure were carried out analogously to the manner set forth above for determining the in vitro inhibitory action of the test substances on NEP. 10 nM phosphoramidon served as standard inhibitor in the HPLC procedure. In this test model the test substances of Formula I listed in the following Table 2 had the IC50 values given below: […]

T1 sequence (P08473 52-750 limits assumed): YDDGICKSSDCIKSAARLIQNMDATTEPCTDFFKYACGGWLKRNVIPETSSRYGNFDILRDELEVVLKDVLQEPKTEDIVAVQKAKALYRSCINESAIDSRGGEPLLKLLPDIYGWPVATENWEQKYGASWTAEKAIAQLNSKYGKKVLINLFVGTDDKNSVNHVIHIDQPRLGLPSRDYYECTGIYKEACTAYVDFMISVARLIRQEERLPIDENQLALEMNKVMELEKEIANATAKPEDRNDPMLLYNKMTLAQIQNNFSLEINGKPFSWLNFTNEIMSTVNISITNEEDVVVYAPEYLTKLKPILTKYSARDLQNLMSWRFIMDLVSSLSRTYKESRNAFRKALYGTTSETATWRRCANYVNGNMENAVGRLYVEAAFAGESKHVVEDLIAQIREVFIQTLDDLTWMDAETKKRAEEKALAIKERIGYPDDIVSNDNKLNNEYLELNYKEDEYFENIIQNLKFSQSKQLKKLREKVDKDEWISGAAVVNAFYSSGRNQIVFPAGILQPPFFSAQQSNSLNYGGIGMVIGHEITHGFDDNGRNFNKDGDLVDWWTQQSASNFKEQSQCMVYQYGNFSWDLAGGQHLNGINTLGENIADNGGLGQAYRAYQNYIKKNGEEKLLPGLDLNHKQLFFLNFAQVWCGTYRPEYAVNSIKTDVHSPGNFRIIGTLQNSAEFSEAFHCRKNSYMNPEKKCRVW

Row | SMILES | pIC50 [1] | fraction unbound at 5 μM [2] | fraction unbound at 5 μM [3] | ED50 [4] [µmol/kg] | change in vivo at 10 µmol/kg [5] [%] | change in vivo at 3 µmol/kg [5] [%] | pIC50 [6]
1 | CC(C)N(C)C(=O)CC(CC1(C(=O)N[C@H]2CCc3ccccc3N(CC(=O)O)C2=O)CCCC1)C(=O)O (single isomer, unassigned) [Example 63] | 8.05 | 0.6 | 0.31 | 0.08 | – | – | –
2 | CNCCN(C)C(=O)CC(CC1(C(=O)NC2CCc3ccccc3N(CC(=O)O)C2=O)CCCC1)C(=O)O (racemic) [Example 68, 2-{[1-({[1-(carboxymethyl)-2-oxo-2,3,4,5-tetrahydro-1H-1-benzazepin-3-yl]amino}carbonyl)cyclopentyl]methyl}-4-{methyl[2-(methylamino)ethyl]amino}-4-oxobutanoic acid] | – | – | – | 0.7 | -108 | – | –
3 | CCOC(=O)C(CC(=O)NCCCO)CC1(C(=O)N[C@H]2CCc3ccccc3N(CC(=O)O)C2=O)CCCC1 (stereo in doubt) [Example 8] | – | – | – | 0.2 | -113 | – | –
4 | CN(CCCCCN)C(=O)CC(CC1(C(=O)NC2CCc3ccccc3N(CC(=O)O)C2=O)CCCC1)C(=O)O (racemic) [Example 78, 4-[(5-aminopentyl)(methyl)amino]-2-{[1-({[1-(carboxymethyl)-2-oxo-2,3,4,5-tetrahydro-1H-1-benzazepin-3-yl]amino}carbonyl)cyclopentyl]methyl}-4-oxobutanoic acid] | – | – | – | < 1 | – | -82 | –
5 | CCN(CCCN)C(=O)CC(CC1(C(=O)NC2CCc3ccccc3N(CC(=O)O)C2=O)CCCC1)C(=O)O (racemic) [Example 67, 4-[(3-aminopropyl)(ethyl)amino]-2-{[1-({[1-(carboxymethyl)-2-oxo-2,3,4,5-tetrahydro-1H-1-benzazepin-3-yl]amino}carbonyl)cyclopentyl]methyl}-4-oxobutanoic acid] | 7.82 | – | – | 0.5 | -109 | – | 7.92
6 | CN(CCCCN)C(=O)CC(CC1(C(=O)NC2CCc3ccccc3N(CC(=O)O)C2=O)CCCC1)C(=O)O (racemic) [Example 75, 4-[(4-aminobutyl)(methyl)amino]-2-{[1-({[1-(carboxymethyl)-2-oxo-2,3,4,5-tetrahydro-1H-1-benzazepin-3-yl]amino}carbonyl)cyclopentyl]methyl}-4-oxobutanoic acid] | – | – | – | 0.1 | – | -52 | –

— patent US20080085889A1, “Amidomethyl-Substituted 1-(Carboxyalkyl) Cyclopentyl-Carbonylamino-Benzazepine-N-Acetic Acid Compounds, Process and Intermediate Products for Their Preparation and Pharmaceutical Compositions Containing Them” (SOLVAY PHARMACEUTICALS GmbH, priority 2003, published 2008)
